Test results as given in patent publication US20150105252A1, “SUBSTITUTED PYRAZOLES AS HERBICIDES” (E I DU PONT DE NEMOURS AND COMPANY, priority 2013, published 2015).

Experiments:
[1] = test system: corn; assay: Test C preemergence; format: in vivo, Zea mays; conditions: for Plant response rating (scale of 0 to 100), Corn: Preemergence, 250 g ai/ha; for Corn plant response rating / Plant response rating, Corn: preemergence; for Plant response rating, Corn: scale 0 to 100, 0 = no effect, 100 = complete control
How it was run: (§1)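 Seeds sown in loam–sand blend and treated preemergence with test chemicals in non-phytotoxic solvent with surfactant; postemergence plants in peat-based medium, treated at 2–18 cm (1- to 4-leaf stage). Greenhouse 13 to 15 days, then visual rating versus controls, 0 (no effect) to 100 (complete control).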

[2] = test system: morningglory; assay: Test A preemergence; format: in vivo, Ipomoea spp.; conditions: 0 to 100 scale
How it was run: (§2)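 Visual injury ratings, 0 = no effect to 100 = complete control, taken about 10 days after treatment against untreated controls. Test chemicals, in a non-phytotoxic surfactant-containing solvent, were sprayed onto soil preemergence or onto one- to two-leaf plants (2–10 cm) postemergence, in loam–sand soil under greenhouse conditions.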

[3] = test system: morningglory; assay: Test A postemergence; format: in vivo, Ipomoea spp.
How it was run: as §2

[4] = test system: wheat; assay: Test A postemergence; format: in vivo, Triticum aestivum
How it was run: as §2

[5] = test system: foxtail, giant; assay: Test C preemergence; format: in vivo, Setaria faberii; conditions: for Plant response rating (scale of 0 to 100), Foxtail, Giant: Preemergence, 250 g ai/ha; for Foxtail, Giant plant response rating / Plant response rating, Foxtail, Giant: preemergence; for Plant response rating, Foxtail, Giant: scale 0 to 100, 0 = no effect, 100 = complete control
From the text: (§3) Seeds of plant species selected from blackgrass (Alopecurus myosuroides), ryegrass, Italian (Italian ryegrass, Lolium multiflorum), wheat (winter wheat, Triticum aestivum), galium (catchweed bedstraw, Galium aparine), corn (Zea mays), crabgrass, large (large crabgrass, Digitaria sanguinalis), foxtail, giant (giant foxtail, Setaria faberii), johnsongrass (Sorghum halepense), lambsquarters (Chenopodium album), morningglory (Ipomoea coccinea), nutsedge, yellow (yellow nutsedge, Cyperus esculentus), pigweed (redroot pigweed, Amaranthus retroflexus), ragweed (common ragweed, Ambrosia elation), soybean (Glycine max), barnyardgrass (Echinochloa crus-galli), oilseed rape (Brassica napus), waterhemp (common waterhemp, Amaranthus rudis), oat, wild (wild oat, Avena fatua), kochia (Kochia scoparia), Surinam grass (Brachiaria decumbens), foxtail, green (green foxtail, Setaria viridis), goosegrass (Eleusine indica), bromegrass, downy (downy bromegrass, Bromus tectorum), nightshade (eastern black nightshade, Solanum ptycanthum), cocklebur (common cocklebur, Xanthium strumarium), cupgrass, woolly (woolly cupgrass, Eriochloa villosa), bermudagrass (Cynodon dactylon), sunflower, (common oilseed sunflower, Helianthus annuus), Russian thistle (Salsola kali), and velvetleaf (Abutilon theophrasti) were planted into a blend of loam soil and sand and treated preemergence with test chemicals formulated in a non-phytotoxic solvent mixture which included a surfactant.
(§4) At the same time, plants selected from these crop and weed species and also chickweed (common chickweed, Stellaria media), canarygrass (littleseed canarygrass, Phalaris minor), and deadnettle (henbit deadnettle, Lamium amplexicaule), were planted in pots containing Redi-Earth® planting medium (Scotts Company, 14111 Scottslawn Road, Marysville, Ohio 43041) comprising spaghnum peat moss, vermiculite, wetting agent and starter nutrients and treated with postemergence applications of test chemicals formulated in the same manner. Plants ranged in height from 2 to 18 cm (1- to 4-leaf stage) for postemergence treatments. Treated plants and controls were maintained in a greenhouse for 13 to 15 days, after which time all species were compared to controls and visually evaluated. Plant response ratings, summarized in Table C, are based on a scale of 0 to 100 where 0 is no effect and 100 is complete control. A dash (-) response means no test result.

[6] = test system: corn; assay: Test A postemergence; format: in vivo, Zea mays
How it was run: as §2

[7] = test system: pigweed; assay: Test A postemergence; format: in vivo, Amaranthus retroflexus
How it was run: as §2

[8] = test system: crabgrass, large; assay: Test A preemergence; format: in vivo, Digitaria sanguinalis; conditions: 0 to 100 scale
How it was run: as §2

[9] = test system: waterhemp; assay: Test C preemergence; format: in vivo, Amaranthus rudis; conditions: for Plant response rating (scale of 0 to 100), Waterhemp: Preemergence, 250 g ai/ha; for Waterhemp plant response rating / Plant response rating, Waterhemp: preemergence; for Plant response rating, Waterhemp: scale 0 to 100, 0 = no effect, 100 = complete control
How it was run: as §1

[10] = test system: pigweed; assay: Test A preemergence; format: in vivo, Amaranthus retroflexus
How it was run: as §2

[11] = test system: ducksalad; assay: Test B flood; format: in vivo, Heteranthera limosa; conditions: 250 g ai/ha, visual rating on 0 to 100 scale (0 no effect, 100 complete control), 13 to 15 days
How it was run: (§5)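 Plants were grown to the 2-leaf stage and pots flooded to 3 cm above soil. Compounds were applied directly into the paddy water, with depth kept for the test. After 13–15 days in greenhouse, response was rated visually against controls on a 0 (no effect) to 100 (complete control) scale.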

[12] = test system: rice; assay: Test B flood; format: in vivo, Oryza sativa; conditions: 250 g ai/ha, visual rating on 0 to 100 scale (0 no effect, 100 complete control), 13 to 15 days
How it was run: as §5

[13] = test system: ragweed; assay: Test C preemergence; format: in vivo, Ambrosia elation; conditions: for Plant response rating (scale of 0 to 100), Ragweed: Preemergence, 250 g ai/ha; for Ragweed plant response rating / Plant response rating, Ragweed: preemergence; for Plant response rating, Ragweed: scale 0 to 100, 0 = no effect, 100 = complete control
From the text: as §3, §4

[14] = test system: blackgrass; assay: Test C preemergence; format: in vivo, Alopecurus myosuroides; conditions: for Plant response rating (scale of 0 to 100), Blackgrass: Preemergence, 250 g ai/ha
From the text: as §3, §4

[15] = test system: ryegrass, Italian; assay: Test C preemergence; format: in vivo, Lolium multiflorum; conditions: for Plant response rating (scale of 0 to 100), Ryegrass, Italian: Preemergence, 250 g ai/ha
How it was run: as §1

[16] = 31 g ai/ha, visual rating, scale 0 to 100 (0 no effect, 100 complete control), 13 to 15 days
[17] = 125 g ai/ha, scale 0 to 100, 0 is no effect, 100 is complete control
[18] = Preemergence, 500 g ai/ha, 0 no effect, 100 complete control
[19] = preemergence, 125 g ai/ha, visual injury, approx. 10 days
[20] = Postemergence, 500 g ai/ha, visual rating after approx. 10 days, 0 to 100 scale (0 no effect, 100 complete control)
[21] = postemergence, 125 g ai/ha, about 10 days, visual rating on 0 to 100 scale (0 no effect, 100 complete control)
[22] = preemergence, 125 g ai/ha, visual injury, 0 to 100 scale, approx. 10 days
[23] = 62 g ai/ha, scale 0 to 100 (0 no effect, 100 complete control), 13 to 15 days
[24] = Postemergence, 500 g ai/ha, 0 to 100 scale (0 no effect, 100 complete control)
[25] = preemergence, 31 g ai/ha, visual rating, scale 0 to 100 (0 no effect, 100 complete control), 13 to 15 days
[26] = preemergence, 62 g ai/ha, scale 0 to 100 (0 no effect, 100 complete control), 13 to 15 days
[27] = preemergence, 125 g ai/ha, scale 0 to 100, 0 is no effect, 100 is complete control
[28] = preemergence, 500 g ai/ha, visual injury after approx. 10 days, 0 to 100 scale (0 no effect, 100 complete control)
[29] = preemergence, 125 g ai/ha, 13 to 15 days, scale 0 to 100, 0 = no effect, 100 = complete control

SMILES: CCc1cc(C(=O)NCC(F)(F)F)nn1Cc1ccnc(C(F)(F)F)c1 [Compound 78, 5-ethyl-N-(2,2,2-trifluoroethyl)-1-[[(2-trifluoromethyl)-4-pyridinyl]methyl]-1H-pyrazole-3-carboxamide]
- Plant response rating (scale of 0 to 100), Corn [1]: 98
- Corn plant response rating [1, 16]: 60
- Plant response rating, Corn ([1]; 62 g ai/ha, 13 to 15 days): 65
- Corn plant response rating [1, 17]: 95
- Morningglory plant response rating [2, 18]: 100
- Morningglory plant response rating [2, 19]: 100
- Morningglory plant response rating [3, 20]: 100
- Morningglory plant response rating [3, 21]: 100
- Wheat plant response rating [4, 20]: 80
- Wheat plant response rating [4, 21]: 70
- Plant response rating (scale of 0 to 100), Foxtail, Giant [5]: 100
- Foxtail, Giant plant response rating [5, 16]: 90
- Plant response rating, Foxtail, Giant ([5]; 62 g ai/ha, 13 to 15 days): 98
- Foxtail, Giant plant response rating [5, 17]: 98
- Corn plant response rating [6, 20]: 100
- Corn plant response rating [6, 21]: 100
- Pigweed plant response rating [7, 20]: 100
- Pigweed plant response rating [7, 21]: 100
- Crabgrass, Large plant response rating [8, 18]: 100
- Crabgrass, Large plant response rating [8, 19]: 100
- Plant response rating (scale of 0 to 100), Waterhemp [9]: 100
- Waterhemp plant response rating [9, 16]: 100
- Plant response rating, Waterhemp ([9]; 62 g ai/ha, 13 to 15 days): 100
- Waterhemp plant response rating [9, 17]: 100
- Pigweed plant response rating ([10]; Preemergence, 500 g ai/ha, 0 to 100 scale, 0 no effect, 100 complete control): 100
- Pigweed plant response rating [10, 22]: 100
- Plant response rating, Ducksalad [11]: 85
- Plant response rating, Rice [12]: 50
- Plant response rating (scale of 0 to 100), Ragweed [13]: 100
- Ragweed plant response rating [13, 16]: 80
- Plant response rating, Ragweed ([13]; 62 g ai/ha, 13 to 15 days): 98
- Ragweed plant response rating [13, 17]: 98

SMILES: CCONC(=O)c1cc(CC)n(Cc2cc(C(F)(F)F)no2)n1 [Compound 125]
- Plant response rating (scale of 0 to 100), Corn [1]: 45
- Corn plant response rating [1, 16]: 0
- Corn plant response rating [1, 23]: 5
- Corn plant response rating [1, 17]: 10
- Wheat plant response rating [4, 24]: 60
- Wheat plant response rating [4, 21]: 0
- Plant response rating (scale of 0 to 100), Foxtail, Giant [5]: 90
- Foxtail, Giant plant response rating [5, 16]: 20
- Foxtail, Giant plant response rating [5, 23]: 35
- Foxtail, Giant plant response rating [5, 17]: 90
- Corn plant response rating [6, 24]: 90
- Corn plant response rating [6, 21]: 30
- Pigweed plant response rating [7, 24]: 100
- Pigweed plant response rating [7, 21]: 70
- Plant response rating (scale of 0 to 100), Blackgrass [14]: 80
- Blackgrass plant response rating [14, 25]: 0
- Blackgrass plant response rating [14, 26]: 10
- Blackgrass plant response rating [14, 27]: 60
- Plant response rating (scale of 0 to 100), Waterhemp [9]: 90
- Waterhemp plant response rating [9, 16]: 65
- Waterhemp plant response rating [9, 23]: 65
- Waterhemp plant response rating [9, 17]: 85
- Pigweed plant response rating [10, 22]: 100
- Pigweed plant response rating [10, 28]: 100
- Plant response rating, Ducksalad [11]: 60
- Plant response rating, Rice [12]: 10
- Plant response rating (scale of 0 to 100), Ragweed [13]: 75
- Ragweed plant response rating [13, 16]: 5
- Ragweed plant response rating [13, 23]: 10
- Ragweed plant response rating [13, 17]: 55
- Plant response rating (scale of 0 to 100), Ryegrass, Italian [15]: 95
- Ryegrass, Italian plant response rating [15, 25]: 0
- Ryegrass, Italian plant response rating [15, 26]: 30
- Ryegrass, Italian plant response rating [15, 27]: 20

SMILES: CCOc1cc(C(=O)NC2CC2)nn1Cc1ccnc(OC(F)F)c1 [Compound 133]
- Plant response rating (scale of 0 to 100), Corn [1]: 95
- Corn plant response rating [1, 16]: 5
- Corn plant response rating [1, 23]: 25
- Plant response rating, Corn ([1]; 125 g ai/ha, 13 to 15 days): 45
- Wheat plant response rating [4, 24]: 90
- Wheat plant response rating [4, 21]: 40
- Plant response rating (scale of 0 to 100), Foxtail, Giant [5]: 100
- Foxtail, Giant plant response rating [5, 16]: 85
- Foxtail, Giant plant response rating [5, 23]: 100
- Plant response rating, Foxtail, Giant ([5]; 125 g ai/ha, 13 to 15 days): 100
- Corn plant response rating [6, 24]: 80
- Corn plant response rating [6, 21]: 60
- Pigweed plant response rating [7, 24]: 100
- Pigweed plant response rating [7, 21]: 100
- Plant response rating (scale of 0 to 100), Blackgrass [14]: 95
- Blackgrass plant response rating [14, 25]: 85
- Blackgrass plant response rating [14, 26]: 90
- Plant response rating, Blackgrass [14, 29]: 90
- Plant response rating (scale of 0 to 100), Waterhemp [9]: 100
- Waterhemp plant response rating [9, 16]: 85
- Waterhemp plant response rating [9, 23]: 100
- Plant response rating, Waterhemp ([9]; 125 g ai/ha, 13 to 15 days): 100
- Pigweed plant response rating [10, 22]: 100
- Pigweed plant response rating [10, 28]: 100
- Plant response rating, Ducksalad [11]: 90
- Plant response rating, Rice [12]: 20
- Plant response rating (scale of 0 to 100), Ragweed [13]: 100
- Ragweed plant response rating [13, 16]: 10
- Ragweed plant response rating [13, 23]: 60
- Plant response rating, Ragweed ([13]; 125 g ai/ha, 13 to 15 days): 100
- Plant response rating (scale of 0 to 100), Ryegrass, Italian [15]: 95
- Ryegrass, Italian plant response rating [15, 25]: 35
- Ryegrass, Italian plant response rating [15, 26]: 85
- Plant response rating, Ryegrass, Italian [15, 29]: 90
